Measurements reported in paper PMC8968665, “Verteporfin is a substrate-selective γ-secretase inhibitor that binds the amyloid precursor protein transmembrane domain” (The Journal of Biological Chemistry, 2022).
“Also recorded” adds a separate entry of the source.

How the values were obtained:
[1] = test system: T1, C99; experiment: 2D 1H,1H-NOESY of 1:1 verteporfin:C99 mixture; type: binding, human; conditions: 300 μM C99 and 300 μM verteporfin, 2.5% d27-LMPG
T1 construct: the transmembrane 99 residue C-terminal (C99) domain; His tag (either the C-terminal hexa-His that is kept, or the N-terminal His of C99-NT2 removed by thrombin); made in house; host or cells: E. coli BL21DE3
Experimental: A sample was prepared containing 300 μM C99 and 300 μM Verteporfin in 2.5% d^27-LMPG (deuterated alkyl chains), 50 mM d^4-Imidazole (deuterated imidazole), 100 mM NaCl, 0.5 mM EDTA, 1 mM DSS, pH 6.5 in 85% D2O. The ^1H-^1H NOESY experiment was recorded on the 800 MHz spectrometer with a mixing time of 120 ms, relaxation delay of 2 s, 4k × 1k data acquisition matrix, using the standard Bruker pulse program (noesyphpr).

[2] = biological target: T2, γ-secretase cleavage of C100-Flag (C99) (Homo sapiens, UniProt P05067); experiment: γ-Secretase IC50 measurement, Aβ40 sandwich ELISA; type: biochemical; conditions: 1 nM purified γ-secretase, 2 µM C100-Flag, 2 h, 37 °C, n=1, error of the fit; read-out: IC50, inhibition of Aβ40 production
T2 construct: C100 is C99 with an added N-terminal Met residue; made in house
T2 sequence (P05067 672-770 limits assumed): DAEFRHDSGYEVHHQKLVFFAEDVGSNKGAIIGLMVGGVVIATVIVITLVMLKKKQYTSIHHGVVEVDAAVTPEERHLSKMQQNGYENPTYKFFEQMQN
Experimental: Purified γ-secretase was diluted in standard assay buffer to specified concentrations and incubated at 37 °C for 30 min, followed by the addition of stock solution of verteporfin in DMSO to achieve various final verteporfin concentrations and 2% final DMSO concentration. Purified C99 FLAG was then added to start the proteolytic reactions, which were incubated for 2 h at 37 °C. The concentrations of Aβ40 produced during the proteolysis of C100 FLAG by γ-secretase were determined using a specific sandwich ELISA (Invitrogen). Aβ40 concentrations were plotted as a function of verteporfin concentration, and the resultant sigmoidal curves were fitted to Equation 5 to determine IC50 values ([80], [83]).(5) Y=Min+(Max−Min)/1+(X/IC50)^HillCoefficient

[3] = biological target: T2, γ-secretase cleavage of C100-Flag (C99); experiment: γ-Secretase assay, C100-FLAG cleavage, AICD by anti-Flag Western blot; type: biochemical
Experimental: The γ-secretase-dependent proteolysis assays with both substrates (C100-FLAG and HexaHis Notch 1 JM/TM) were performed in a weak zwitterionic detergent (CHAPSO, 3-[(3- cholamidopropyl)dimethylammonio]-2-hydroxy-1-propanesulfonate) solubilized conditions ([79], [80]). C100 is C99 with an added N-terminal Met residue. […] Proteolytic reactions were initiated by adding purified substrates (either C100-FLAG(79) or HexaHis-Notch 1 JM/TM(77)) and incubating at 37 °C (16 h for C100Flag and 4 h for HexaHis-Notch 1 JM/TM). Reactions were quenched with SDS, and the cleaved intracellular domain products (AICD-FLAG released from C100-FLAG or truncated intracellular domain (NICD) released from the proteolysis of Hexa-His Notch 1 JM/TM) were visualized by Western blot using specific primary antibodies, anti-FLAG antibody for FLAG-tagged AICD, and neoepitope-specific anti-V1744 antibody for NICD ([80], [83], [84]).

[4] = biological target: T3, γ-secretase cleavage of Notch-1 TM/JM (Homo sapiens, UniProt P49768+Q92542+Q96BI3+Q9NZ42); experiment: γ-Secretase assay, Notch-1 TM/JM cleavage, NICD by anti-V1744 Western blot; type: biochemical
T3 construct: made in house; host or cells: Notch-1 TM/JM: E. coli BL21DE3 Star
T3 sequence (Q92542 34-709, other chains not shown): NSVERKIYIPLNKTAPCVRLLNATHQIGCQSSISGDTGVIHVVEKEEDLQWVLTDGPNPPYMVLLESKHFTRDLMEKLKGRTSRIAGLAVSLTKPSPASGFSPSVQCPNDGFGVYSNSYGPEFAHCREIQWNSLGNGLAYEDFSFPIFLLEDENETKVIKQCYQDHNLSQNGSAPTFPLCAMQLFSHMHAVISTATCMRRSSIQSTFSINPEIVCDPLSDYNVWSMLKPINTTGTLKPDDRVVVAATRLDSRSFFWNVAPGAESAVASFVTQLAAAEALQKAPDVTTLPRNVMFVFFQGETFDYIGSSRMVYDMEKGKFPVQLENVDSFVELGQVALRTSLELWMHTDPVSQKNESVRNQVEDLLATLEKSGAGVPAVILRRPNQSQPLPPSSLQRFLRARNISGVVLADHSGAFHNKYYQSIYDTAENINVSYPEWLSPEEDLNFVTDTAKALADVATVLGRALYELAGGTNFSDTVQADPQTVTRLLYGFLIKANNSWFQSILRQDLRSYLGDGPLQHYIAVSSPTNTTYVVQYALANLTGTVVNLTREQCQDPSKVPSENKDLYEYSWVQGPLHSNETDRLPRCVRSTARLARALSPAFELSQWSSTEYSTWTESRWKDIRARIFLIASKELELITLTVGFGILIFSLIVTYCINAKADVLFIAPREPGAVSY
T3 sequence (Q96BI3 whole entry, other chains not shown): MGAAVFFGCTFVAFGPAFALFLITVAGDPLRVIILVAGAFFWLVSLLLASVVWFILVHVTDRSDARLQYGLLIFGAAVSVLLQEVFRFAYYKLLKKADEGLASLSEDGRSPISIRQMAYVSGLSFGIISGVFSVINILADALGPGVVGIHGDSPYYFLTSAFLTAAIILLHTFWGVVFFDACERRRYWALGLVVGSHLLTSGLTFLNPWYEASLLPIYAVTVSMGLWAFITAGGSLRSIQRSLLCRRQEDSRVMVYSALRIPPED
T3 sequence (Q9NZ42 whole entry, other chains not shown): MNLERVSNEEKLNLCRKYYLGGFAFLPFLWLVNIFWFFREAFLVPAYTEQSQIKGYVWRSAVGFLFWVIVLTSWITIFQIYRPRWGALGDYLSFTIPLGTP
Experimental: The γ-secretase-dependent proteolysis assays with both substrates (C100-FLAG and HexaHis Notch 1 JM/TM) were performed in a weak zwitterionic detergent (CHAPSO, 3-[(3- cholamidopropyl)dimethylammonio]-2-hydroxy-1-propanesulfonate) solubilized conditions ([79], [80]). C100 is C99 with an added N-terminal Met residue. Stock solution of purified γ-secretase ([81], [82]) was diluted to 30 nM in standard assay buffer containing 50 mM HEPES (pH 7.0), 150 mM NaCl, 0.1% DOPC (phosphatidylcholine), 0.025% DOPE (phosphatidylethanolamine), and 0.25% CHAPSO) and incubated at 37 °C for 30 min, whereupon stock solution of verteporfin or inhibitor (LY411,575) was added to achieve the desired concentration with 1% final DMSO concentration. Proteolytic reactions were initiated by adding purified substrates (either C100-FLAG(79) or HexaHis-Notch 1 JM/TM(77)) and incubating at 37 °C (16 h for C100Flag and 4 h for HexaHis-Notch 1 JM/TM). Reactions were quenched with SDS, and the cleaved intracellular domain products (AICD-FLAG released from C100-FLAG or truncated intracellular domain (NICD) released from the proteolysis of Hexa-His Notch 1 JM/TM) were visualized by Western blot using specific primary antibodies, anti-FLAG antibody for FLAG-tagged AICD, and neoepitope-specific anti-V1744 antibody for NICD ([80], [83], [84]).

verteporfin
direct intermolecular contact with C99 (NOESY cross-peaks) [1]: confirms direct binding | IC50 [2]: 15 ± 1 µM | IC50 ([3]; 30 nM purified γ-secretase, C100-Flag, 16 h, 37 °C, n = 3, read-out: IC50, inhibition of AICD production): 164 ± 45 µM | degree of inhibition of C99 cleavage at saturating verteporfin ([3]; 30 nM γ-secretase): approximately 75% | C100-Flag cleavage efficiency (Western blot) ([3]; 100 µM verteporfin, 2 µM C100-Flag, 1 nM γ-secretase, Fig. S6A): greatly reduced | IC50 ([3]; depending on assay conditions (1 nM to 30 nM enzyme), read-out: IC50 range for γ-secretase cleavage of C99): 15 to 164 µM | reduction of Notch-1 cleavage at saturating verteporfin ([4]; 30 nM γ-secretase): approximately 75% | IC50 ([4]; 30 nM γ-secretase, Notch-1 TM/JM, 4 h, 37 °C, n = 3, estimated, at concentrations above 200 μM, read-out: IC50, inhibition of NICD production): 240 ± 66 µM | inhibition of Notch-1 cleavage ([4]; verteporfin at 164 μM (IC50 for C99 cleavage)): no inhibition | effect on Notch-1 cleavage at low concentrations ([4]; verteporfin below ca. 200 μM, relative to 0 verteporfin): first activated; also recorded: enhanced; also recorded: stimulate
